Experimental data reported in patent US20210045385A1, “PYRIDAZINONE-SUBSTITUTED KETOXIMES AS HERBICIDES” (FMC Corporation, priority 2018, published 2021).

Columns and labels:
Format in all cases: in vivo
[1] = tested on: Italian ryegrass (Lolium mutiflorum); assay: Test C preemergence, visual plant response rating
Method in brief: (§1)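 Visual injury on a 0 (no effect) to 100 (complete control) scale versus untreated controls, scored approximately 10 d after treatment under greenhouse conditions. Treatments used surfactant-containing non-phytotoxic solvent formulations, sprayed onto loam–sand soil preemergence or onto one- to two-leaf plants 2–10 cm tall postemergence.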

[2] = tested on: barnyardgrass (Echinochloa crus-galli); assay: Test C preemergence, visual plant response rating
Method in brief: as §1

[3] = tested on: foxtail, green (green foxtail, Setaria viridis); assay: Test C preemergence, visual plant response rating
Method in brief: as §1

kochia (Bassia scoparia) [4] = assay: Test C preemergence, visual plant response rating
Method in brief: as §1

[5] = tested on: pigweed (Amaranthus retroflexus); assay: Test C preemergence, visual plant response rating
Method in brief: as §1

[6] = tested on: ragweed (common ragweed, Ambrosia artemisiifolia); assay: Test C preemergence, visual plant response rating
Method in brief: as §1

[7] = tested on: Italian ryegrass (Lolium mutiflorum); assay: Test C postemergence, visual plant response rating; details: Test C, postemergence
Method in brief: as §1

[8] = tested on: barnyardgrass (Echinochloa crus-galli); assay: Test C postemergence, visual plant response rating; details: Test C, postemergence
Method in brief: as §1

[9] = tested on: blackgrass (Alopecurus myosuroides); assay: Test C postemergence, visual plant response rating; details: Test C, postemergence
Method in brief: as §1

corn (Zea mays) = assay: Test C postemergence, visual plant response rating; details: Test C, postemergence
Method in brief: as §1

[10] = tested on: foxtail, green (green foxtail, Setaria viridis); assay: Test C postemergence, visual plant response rating
Method in brief: as §1

kochia (Bassia scoparia) [11] = assay: Test C postemergence, visual plant response rating; details: Test C, postemergence
Method in brief: as §1

[12] = tested on: pigweed (Amaranthus retroflexus); assay: Test C postemergence, visual plant response rating; details: Test C, postemergence
Method in brief: as §1

[13] = tested on: ragweed (common ragweed, Ambrosia artemisiifolia); assay: Test C postemergence, visual plant response rating; details: Test C, postemergence
Method in brief: as §1

[14] = tested on: wheat (Triticum aestivum); assay: Test C postemergence, visual plant response rating; details: Test C, postemergence
Method in brief: as §1

[15] = tested on: barnyardgrass (Echinochloa crus-galli); assay: Test D flooded paddy test, visual plant response rating; details: 250 g ai/ha, scale 0 to 100 (0 no effect, 100 complete control), 13 to 15 d
Method in brief: (§2)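 Visual injury scores, 0 (no effect) to 100 (complete control), were assigned after 13 to 15 d in the greenhouse by comparison with controls. Test compounds had been added to paddy water covering soil by 3 cm at the 2-leaf stage.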

[16] = tested on: duck salad (Heteranthera limosa); assay: as above; details: 250 g ai/ha, scale 0 to 100 (0 no effect, 100 complete control), 13 to 15 d
Method in brief: as §2

rice (Oryza sativa) = assay: as above; details: 250 g ai/ha, scale 0 to 100 (0 no effect, 100 complete control), 13 to 15 d
Method in brief: as §2

[17] = tested on: sedge umbrella (small-flower umbrella sedge, Cyperus difformis); assay: as above; details: 250 g ai/ha, scale 0 to 100 (0 no effect, 100 complete control), 13 to 15 d
Method in brief: as §2

Cc1nn(C)c(=O)c(/C(=N\OCc2ccccc2)c2cccc(Cl)c2)c1O [Compound 149]
Ryegrass, Italian plant response rating (0 to 100 scale) ([1]; 125 g ai/ha): 0 | Ryegrass, Italian plant response rating (0 to 100 scale) ([1]; 500 g ai/ha): 0 | Barnyardgrass plant response rating (0 to 100 scale) ([2]; 125 g ai/ha): 0 | Barnyardgrass plant response rating (0 to 100 scale) ([2]; 500 g ai/ha): 0 | Foxtail, Green plant response rating (0 to 100 scale) ([3]; 125 g ai/ha): 0 | Foxtail, Green plant response rating (0 to 100 scale) ([3]; 500 g ai/ha): 0 | Kochia plant response rating (0 to 100 scale) (kochia (Bassia scoparia) [4]; 125 g ai/ha): 0 | Kochia plant response rating (0 to 100 scale) (kochia (Bassia scoparia) [4]; 500 g ai/ha): 0 | Pigweed plant response rating (0 to 100 scale) ([5]; 125 g ai/ha): 0 | Pigweed plant response rating (0 to 100 scale) ([5]; 500 g ai/ha): 20 | Ragweed plant response rating (0 to 100 scale) ([6]; 125 g ai/ha): 0 | Ragweed plant response rating (0 to 100 scale) ([6]; 500 g ai/ha): 0 | Ryegrass, Italian plant response rating (0 to 100 scale) ([7]; 125 g ai/ha): 0 | Ryegrass, Italian plant response rating (0 to 100 scale) ([7]; 500 g ai/ha): 10 | Barnyardgrass plant response rating (0 to 100 scale) ([8]; 125 g ai/ha): 0 | Barnyardgrass plant response rating (0 to 100 scale) ([8]; 500 g ai/ha): 0 | Blackgrass plant response rating (0 to 100 scale) ([9]; 125 g ai/ha): 0 | Blackgrass plant response rating (0 to 100 scale) ([9]; 500 g ai/ha): 0 | Corn plant response rating (0 to 100 scale) (corn (Zea mays); 125 g ai/ha): 0 | Corn plant response rating (0 to 100 scale) (corn (Zea mays); 500 g ai/ha): 0 | Foxtail, Green plant response rating (0 to 100 scale) ([10]; 125 g ai/ha): 0 | Foxtail, Green plant response rating (0 to 100 scale) ([10]; 500 g ai/ha): 0 | Kochia plant response rating (0 to 100 scale) (kochia (Bassia scoparia) [11]; 125 g ai/ha): 0 | Kochia plant response rating (0 to 100 scale) (kochia (Bassia scoparia) [11]; 500 g ai/ha): 0 | Pigweed plant response rating (0 to 100 scale) ([12]; 125 g ai/ha): 0 | Pigweed plant response rating (0 to 100 scale) ([12]; 500 g ai/ha): 0 | Ragweed plant response rating (0 to 100 scale) ([13]; 125 g ai/ha): 0 | Ragweed plant response rating (0 to 100 scale) ([13]; 500 g ai/ha): 0 | Wheat plant response rating (0 to 100 scale) ([14]; 125 g ai/ha): 0 | Wheat plant response rating (0 to 100 scale) ([14]; 500 g ai/ha): 0 | Plant response rating, Barnyardgrass (Flood) [15]: 0 | Plant response rating, Ducksalad (Flood) [16]: 0 | Plant response rating, Rice (Flood) (rice (Oryza sativa)): 0 | Plant response rating, Sedge, Umbrella (Flood) [17]: 0
